# Data taken from patent publication US20070202503A1, “Pharmaceutical Composition Of (+)-Erythro-Mefloquine And Its Use” (priority 2004, published 2007).
# Tests used:
# human neutrophil = conditions: cited from earlier work
# [1] = Adverse events in clinical study on a background of methotrexate therapy; type: in vivo, patients; conditions: combination of (+)-erythro-mefloquine and methotrexate
# Description: The formulations were used on a background of methotrexate therapy.
# This is shown in FIG. 2, a plot of TMD (mean score) against time (days); ♦ represents placebo, ▴ represents A, ▪ represents B and ★ represents C.
SMILES,effect on human neutrophil degranulation (human neutrophil),Adverse events compared with methotrexate alone [1]
"OC(c1cc(C(F)(F)F)nc2c(C(F)(F)F)cccc12)C1CCCCN1 (racemic) [Racemic mefloquine, mefloquine]",stimulates human neutrophil degranulation,
O[C@H](c1cc(C(F)(F)F)nc2c(C(F)(F)F)cccc12)[C@@H]1CCCCN1 [(+)-erythro-mefloquine],,lower adverse events than methotrexate alone
